Data taken from patent US10858316B2, “Small molecule inhibitors of the MCL-1 oncoprotein and uses thereof” (University of Maryland, Baltimore, priority 2015, dated 2020).
Where two headings read alike, the source gives them in different places.

How the values were obtained:
[1] = target: Mcl-1 (Homo sapiens (Human), UniProt Q07820); assay: Fluorescence polarization competition assay (FPCA), Mcl-1 / FITC-Bak BH3 peptide; type: binding; conditions: for Ki: read-out: Mcl-1 Ki; for Mcl-1 Exp ΔG: ΔG=−RTlnKi from experimental Ki
Sequence of Mcl-1 (Homo sapiens (Human), UniProt Q07820) (Q07820 172-327): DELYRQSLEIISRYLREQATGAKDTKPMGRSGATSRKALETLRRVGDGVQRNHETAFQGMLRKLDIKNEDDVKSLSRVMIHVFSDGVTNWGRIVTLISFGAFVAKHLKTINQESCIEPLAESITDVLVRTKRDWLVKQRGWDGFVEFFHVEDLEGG
Description: (§1) The tagged protein was initially purified from the crude cell lysate by immobilized metal affinity chromatography (IMAC) chromatography (GE Healthcare Life Sciences), and after dialysis to remove the imidazole the affinity tag was cleaved using PreScission Protease (GE Healthcare Life Sciences). A Sephacryl S-200 size exclusion column was used as a final purification step before the protein was concentrated with a 10,000 MWCO centifugal filter concentrator (Millipore).
(§2) Fluorescence polarization experiments were conducted using a BMG PHERAstar FS multimode microplate reader equipped with two PMTs for simultaneous measurements of the perpendicular and parallel fluorescence emission. The assays were performed in black polypropylene 384-well microplate (Costar) with a final volume of 20 microliter. […] Regression analysis was carried out using Origin (OriginLab, Northampton, Mass.) to fit the data to the Hill equation (1) to determine the initial binding affinity (KD) and the IC50 in the FPCA. For the fluorescence polarization competition titrations, an equation derived by Nikolovska-Coleska et al. was used to calculate the Ki from the IC50 data.
(§3) The target molecules were assayed for their abilities to disrupt the Mcl-1-Bak-BH3 PPI in a fluorescence polarization competition (FPC) assay with Mcl-1 and FITC-labeled Bak-BH3 peptide. Further details on the FPC assay can be found in the Supporting Information.

[2] = system: Mcl-1; assay: as above; type: binding, human; conditions: for Selectivity, Ki (Bcl-xL) divided by Ki (Mcl-1): Mcl-1 over Bcl-xL; for Exp. ΔG diff.: between Mcl-1 and Bcl-xL, positive favors Mcl-1
Description: as §1, §2, §3

[3] = target: Bcl-xL (Homo sapiens (Human), UniProt Q07817); assay: Fluorescence polarization competition assay, Bcl-xL; type: binding; conditions: for Ki: Ki from IC50 by Nikolovska-Coleska equation, NA = no activity, read-out: Bcl-xL Ki; for Bcl-xL Exp ΔG: ΔG from experimental Ki
Sequence of Bcl-xL (Q07817 whole entry): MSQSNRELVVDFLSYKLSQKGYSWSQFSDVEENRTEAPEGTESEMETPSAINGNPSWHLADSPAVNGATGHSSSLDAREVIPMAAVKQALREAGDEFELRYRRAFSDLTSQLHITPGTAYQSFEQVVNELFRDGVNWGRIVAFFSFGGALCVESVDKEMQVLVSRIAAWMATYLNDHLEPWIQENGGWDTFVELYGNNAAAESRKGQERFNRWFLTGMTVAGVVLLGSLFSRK
Method: as §2

[4] = FPCA with FITC-Bak, Ki from IC50 by Nikolovska-Coleska equation

Row | SMILES | Ki [1, 4] [nM] | Selectivity, Ki (Bcl-xL) divided by Ki (Mcl-1) [2] | Ki [3] [nM] | Mcl-1 Exp ΔG [1] [kcal/mol] | Exp. ΔG diff. [2] [kcal/mol] | Bcl-xL Exp ΔG [3] [kcal/mol] | Ki ([1]; FPCA) [nM]
1 | O=C(O)c1cc(S(=O)(=O)Nc2ccc(Oc3ccc(Cl)cc3Cl)cc2)c2ccccc2c1O [Compound 3bg, 4-(N-(4-(2,4-Dichlorophenoxy)phenyl)sulfamoyl)-1-hydroxy-2-naphthoic Acid] | 79 | 2.4 | 190 ± 20 |  |  |  | 
2 | O=C(O)c1cc(S(=O)(=O)Nc2cccc3ccccc23)c2ccccc2c1O [3p; EW-2-056] |  |  |  | -6.75 | 1.35 | -5.40 | 
3 | O=C(O)c1cc(S(=O)(=O)Nc2ccc(Oc3ccc(Cl)cc3Cl)cc2)c2ccccc2c1O [3bg; SF-5-302] |  |  |  | -9.68 | 0.52 | -9.16 | 
4 | Cc1cc(Oc2ccc(N(CC(C)C)S(=O)(=O)c3cc(C(=O)O)c(O)c4ccccc34)cc2)cc(C)c1Cl [3bj; JY-5-377] |  |  |  | -9.68 | 0.45 | -9.23 | 
5 | Cc1ccc(Oc2ccc(NS(=O)(=O)c3cc(C(=O)O)c(O)c4ccccc34)cc2)cc1 [Compound 3bc, 1-Hydroxy-4-(N-(4-(p-tolyloxy)phenyl)sulfamoyl)-2-naphthoic Acid] | 335 | 2.5 | 840 ± 50 |  |  |  | 
6 | O=C(O)c1cc(S(=O)(=O)NCC2CCCCC2)c2ccccc2c1O [3g; MEL-3-006] |  |  |  | -7.00 | 1.40 | -5.60 | 
7 | Cc1cc(Oc2ccc(NS(=O)(=O)c3cc(C(=O)O)c(O)c4ccccc34)cc2)cc(C)c1Cl [3bi; JY-5-371] |  |  |  | -9.45 | 0.84 | -8.61 | 
8 | O=C(O)c1cc(S(=O)(=O)Nc2ccc3ccccc3c2)c2ccccc2c1O [3q; EW-2-057] |  |  |  | -7.28 | 1.60 | -5.68 | 
9 | CC(C)CN(c1ccc(OC(C)C)cc1)S(=O)(=O)c1cc(C(=O)O)c(O)c2ccccc12 [3ba; MEL-2-116] |  |  |  | -8.61 |  | -7.11 | 
10 | O=C(O)c1cc(S(=O)(=O)Nc2ccc(Br)cc2Br)c2ccccc2c1O [Compound 3o, 4-(N-(2,4-Dibromophenyl)sulfamoyl)-1-hydroxy-2-naphthoic Acid] |  | 5.5 | 2310 ± 1350 |  |  |  | 420
11 | Cc1cc(Oc2ccc(S(=O)(=O)N(c3ccc(C(=O)O)c(O)c3)C3CCCC3)cc2)cc(C)c1Cl [LC-4-104 13bc] | 1760 ± 208 |  | 1910 ± 117 |  |  |  | 
12 | O=C(O)c1cc(S(=O)(=O)Nc2ccccc2C(F)(F)F)c2ccccc2c1O [Compound 3u, 1-Hydroxy-4-(N-(2-(trifluoromethyl)phenyl)sulfamoyl)-2-naphthoic Acid] | 4050 ± 2110 | 4.8 | 19300 ± 9000 |  |  |  | 
13 | O=C(O)c1cc(S(=O)(=O)Nc2cccc3ccccc23)c2ccccc2c1O [Compound 3p, 1-Hydroxy-4-(N-(naphthalen-1-yl)sulfamoyl)-2-naphthoic Acid] | 11200 ± 2000 | 10 | 110000 ± 45000 |  |  |  | 
14 | O=C(O)c1cc(S(=O)(=O)Nc2ccccc2C(F)(F)F)c2ccccc2c1O [3u; TA-1-017] |  |  |  | -7.35 | 0.92 | -6.43 | 
15 | O=C(O)c1cc(S(=O)(=O)Nc2ccc(Oc3cccc(Br)c3)cc2)c2ccccc2c1O [Compound 3be, 4-(N-(4-(3-Bromophenoxy)phenyl)sulfamoyl)-1-hydroxy-2-naphthoic Acid] | 114 | 3.8 | 300 ± 40 |  |  |  | 
16 | Cc1cc(Oc2ccc(N(CC(C)C)S(=O)(=O)c3cc(C(=O)O)c(O)c4ccccc34)cc2)cc(C)c1Cl [Compound 3bj, 4-(N-(4-(4-Chloro-3,5-dimethylphenoxy)phenyl)-N-isobutylsulfamoyl)-1-hydroxy-2-naphthoic Acid] | 80 ± 19 | 2.1 | 170 ± 60 |  |  |  | 
17 | COc1ccc(NS(=O)(=O)c2cc(C(=O)O)c(O)c3ccccc23)cc1 [Compound 3z, 1-Hydroxy-4-(N-(4-methoxyphenyl)sulfamoyl)-2-naphthoic Acid] | 11900 ± 2500 | 6 | 71900 ± 21000 |  |  |  | 
18 | Cc1cc(Oc2ccc(S(=O)(=O)N(Cc3ccccc3)c3ccc(O)c(C(=O)NS(=O)(=O)c4ccc(NCC5CCOCC5)c([N+](=O)[O-])c4)c3)cc2)cc(C)c1Cl [LC-5-132 33] | 1010 ± 80 |  | 1540 ± 226 |  |  |  | 
